The values that follow come from patent publication US20240270762A1, “PENICILLIN-BINDING PROTEIN INHIBITORS” (priority 2021, published 2024).

The test system of experiment [1] is B. pseudomallei Bp82. Put plainly: microbe, parasite or virus in culture. It counts as cell-based. Conditions: Burkholderia pseudomallei, BP82, read-out: Minimum inhibitory concentration, B. pseudomallei Bp82.
In experiment [2] the test system is P. aeruginosa CDC-0090. Put plainly: microbe, parasite or virus in culture. The experiment is classed as cell-based. Conditions: Pseudomonas aeruginosa, CDC0090, read-out: Minimum inhibitory concentration, P. aeruginosa CDC-0090.
Experiment [3] has as its target A. baumannii PBP2 (Acinetobacter baumannii, UniProt D0C8Z9). Put plainly: Bocillin-FL competition binding via gel filtration, A. baumannii PBP2. Put shortly: (§1)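 Competitive equilibrium binding; reporter Bocillin-FL. PBP + inhibitor (titration) pre-incubated → Bocillin-FL, 15 min → gel filtration → fluorescence. EC50 from Hill fit of fraction bound vs [inhibitor].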
A general note: SEC sorts molecules by how far they enter the pores of the column.

Experiment [4] has as its target T1, A. baumannii PBP1a (Acinetobacter baumannii, UniProt A0ABX6CK30).
T1 sequence (A0ABX6CK30 1-851): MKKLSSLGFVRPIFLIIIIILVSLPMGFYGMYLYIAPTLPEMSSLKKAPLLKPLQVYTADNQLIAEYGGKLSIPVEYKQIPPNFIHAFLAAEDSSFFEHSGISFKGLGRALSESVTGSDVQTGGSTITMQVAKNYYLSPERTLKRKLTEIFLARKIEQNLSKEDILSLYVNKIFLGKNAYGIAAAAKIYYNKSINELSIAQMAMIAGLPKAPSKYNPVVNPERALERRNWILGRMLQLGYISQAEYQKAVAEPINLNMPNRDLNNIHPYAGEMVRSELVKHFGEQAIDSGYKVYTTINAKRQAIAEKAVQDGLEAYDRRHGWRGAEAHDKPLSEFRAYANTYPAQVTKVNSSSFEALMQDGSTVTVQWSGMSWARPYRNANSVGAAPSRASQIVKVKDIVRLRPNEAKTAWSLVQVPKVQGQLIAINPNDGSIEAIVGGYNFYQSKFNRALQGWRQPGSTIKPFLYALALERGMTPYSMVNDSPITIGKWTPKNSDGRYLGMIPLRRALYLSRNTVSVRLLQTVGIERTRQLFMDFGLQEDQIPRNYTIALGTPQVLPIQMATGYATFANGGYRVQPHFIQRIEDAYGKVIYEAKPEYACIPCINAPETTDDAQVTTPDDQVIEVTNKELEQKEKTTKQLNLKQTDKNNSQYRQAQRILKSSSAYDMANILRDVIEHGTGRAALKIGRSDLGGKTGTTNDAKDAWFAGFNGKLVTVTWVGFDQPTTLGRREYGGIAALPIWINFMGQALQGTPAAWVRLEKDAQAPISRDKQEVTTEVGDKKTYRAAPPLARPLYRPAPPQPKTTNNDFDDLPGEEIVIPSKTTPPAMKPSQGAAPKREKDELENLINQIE
In words: Bocillin-FL competition binding via gel filtration, A. baumannii PBP1a. Conditions: competition binding assay using Bocillin-FL via gel filtration; read-out: A. baumannii PBP1a Potency. Put shortly: as §1

In brackets after ≈: the same amount, converted by molar mass.

A. baumannii PBP2, sequence (D0C8Z9 whole entry): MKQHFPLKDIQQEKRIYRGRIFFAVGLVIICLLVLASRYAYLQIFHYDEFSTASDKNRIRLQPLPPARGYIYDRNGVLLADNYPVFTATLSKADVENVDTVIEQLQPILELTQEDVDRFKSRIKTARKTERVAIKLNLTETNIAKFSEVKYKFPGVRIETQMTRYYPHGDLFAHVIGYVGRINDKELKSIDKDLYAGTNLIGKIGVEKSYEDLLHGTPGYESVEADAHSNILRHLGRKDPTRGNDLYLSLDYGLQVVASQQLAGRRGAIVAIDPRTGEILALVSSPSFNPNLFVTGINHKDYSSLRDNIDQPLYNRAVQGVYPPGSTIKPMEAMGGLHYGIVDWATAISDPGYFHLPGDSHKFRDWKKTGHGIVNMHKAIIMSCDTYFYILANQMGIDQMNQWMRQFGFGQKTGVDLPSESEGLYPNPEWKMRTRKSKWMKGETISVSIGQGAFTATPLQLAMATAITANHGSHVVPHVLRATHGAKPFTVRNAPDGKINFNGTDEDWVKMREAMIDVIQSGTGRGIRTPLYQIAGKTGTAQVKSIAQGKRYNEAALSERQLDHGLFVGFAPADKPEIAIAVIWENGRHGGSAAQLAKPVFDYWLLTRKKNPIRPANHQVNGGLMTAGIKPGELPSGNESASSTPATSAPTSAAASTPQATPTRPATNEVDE

Consider `O=C(NCCCN1CCN(C(=O)NC(C(=O)N[C@H]2Cc3ccc(F)c(C(=O)O)c3OB2O)c2cc(F)c(O)c(O)c2Cl)C(=O)C1=O)c1ccc(O)cc1` (stereo partly drawn) [Example 203, (3R)-3-(2-(2-chloro-5-fluoro-3,4-dihydroxyphenyl)-2-(4-(3-(4-hydroxybenzamido)propyl)-2,3-dioxopiperazine-1-carboxamido)acetamido)-7-fluoro-2-hydroxy-3,4-dihydro-2H-benzo[e][1,2]oxaborinine-8-carboxylic acid], for which the MIC in experiment [1] and in experiment [2] was under 1 µg/mL in each case. Further, the EC50 in experiment [3] was 10 to 50 µM; in experiment [4] it was under 10 µM.
Turning to `O=C(NCCCN1CCN(C(=O)NC(C(=O)N[C@H]2Cc3ccc(F)c(C(=O)O)c3OB2O)c2cc(F)c(O)c(O)c2Cl)C(=O)C1=O)Nc1ccc(O)cc1` (stereo partly drawn) [Example 227, (3R)-3-(2-(2-chloro-5-fluoro-3,4-dihydroxyphenyl)-2-(4-(3-(3-(4-hydroxyphenyl)ureido)propyl)-2,3-dioxopiperazine-1-carboxamido)acetamido)-7-fluoro-2-hydroxy-3,4-dihydro-2H-benzo[e][1,2]oxaborinine-8-carboxylic acid], the MIC is under 1 µg/mL in experiment [1] and 2 to 4 µg/mL (≈ 2.58 to 5.16 µM) in experiment [2]. Moreover, the EC50 in experiment [3] and in experiment [4] was 10 to 50 µM throughout.
Regarding `O=C(NCCCN1CCN(C(=O)NC(C(=O)N[C@H]2Cc3ccc(F)c(C(=O)O)c3OB2O)c2cc(F)c(O)c(O)c2Cl)C(=O)C1=O)c1cccc(O)c1` (stereo partly drawn) [Example 204, (3R)-3-(2-(2-chloro-5-fluoro-3,4-dihydroxyphenyl)-2-(4-(3-(3-hydroxybenzamido)propyl)-2,3-dioxopiperazine-1-carboxamido)acetamido)-7-fluoro-2-hydroxy-3,4-dihydro-2H-benzo[e][1,2]oxaborinine-8-carboxylic acid], the MIC in experiment [1] and in experiment [2] was under 1 µg/mL each time. The EC50 in experiment [3] and in experiment [4] was 10 to 50 µM each time.
Take `O=C(NCCN1CCN(C(=O)NC(C(=O)N[C@H]2Cc3ccc(F)c(C(=O)O)c3OB2O)c2cc(F)c(O)c(O)c2Cl)C(=O)C1=O)c1ccc(O)cc1` (stereo partly drawn) [Example 214, (3R)-3-(2-(2-chloro-5-fluoro-3,4-dihydroxyphenyl)-2-(4-(2-(4-hydroxybenzamido)ethyl)-2,3-dioxopiperazine-1-carboxamido)acetamido)-7-fluoro-2-hydroxy-3,4-dihydro-2H-benzo[e][1,2]oxaborinine-8-carboxylic acid]: the MIC in experiment [1] is 2 to 4 µg/mL (≈ 2.68 to 5.36 µM); in experiment [2], under 1 µg/mL. Further, the EC50 in experiment [3] and in experiment [4] was 10 to 50 µM each time.
On to `O=C(NCCCN1CCN(C(=O)NC(C(=O)N[C@H]2Cc3ccc(F)c(C(=O)O)c3OB2O)c2cc(F)c(O)c(O)c2Cl)C(=O)C1=O)c1ccncc1` (stereo partly drawn) [Example 205, (3R)-3-(2-(2-chloro-5-fluoro-3,4-dihydroxyphenyl)-2-(4-(3-(isonicotinamido)propyl)-2,3-dioxopiperazine-1-carboxamido)acetamido)-7-fluoro-2-hydroxy-3,4-dihydro-2H-benzo[e][1,2]oxaborinine-8-carboxylic acid], for which the MIC in experiment [1] and in experiment [2] was under 1 µg/mL in each case. For the same compound, the EC50 lay within 10 to 50 µM in experiment [3] and 50 to 250 µM in experiment [4].
`O=C(NCCCN1CCN(C(=O)NC(C(=O)N[C@H]2Cc3ccc(F)c(C(=O)O)c3OB2O)c2cc(F)c(O)c(O)c2Cl)C1=O)Nc1cccnc1` (stereo partly drawn) [Example 259, (3R)-3-(2-(2-chloro-5-fluoro-3,4-dihydroxyphenyl)-2-(2-oxo-3-(3-(3-(pyridin-3-yl)ureido)propyl)imidazolidine-1-carboxamido)acetamido)-7-fluoro-2-hydroxy-3,4-dihydro-2H-benzo[e][1,2]oxaborinine-8-carboxylic acid]: the MIC in experiment [1] and in experiment [2] was under 1 µg/mL in each case. The EC50 is under 10 µM in experiment [3] and 10 to 50 µM in experiment [4].
As to `O=C(NCCN1CCN(C(=O)N[C@@H](C(=O)N[C@H]2Cc3ccc(F)c(C(=O)O)c3OB2O)c2cc(F)c(O)c(O)c2Cl)C(=O)C1=O)Nc1cccnc1` [Example 222, (R)-3-((R)-2-(2-chloro-5-fluoro-3,4-dihydroxyphenyl)-2-(2,3-dioxo-4-(2-(3-(pyridin-3-yl)ureido)ethyl)piperazine-1-carboxamido)acetamido)-7-fluoro-2-hydroxy-3,4-dihydro-2H-benzo[e][1,2]oxaborinine-8-carboxylic acid], the MIC in experiment [1] is under 1 µg/mL; in experiment [2] it was 2 to 4 µg/mL (≈ 2.68 to 5.36 µM). For the same compound, the EC50 in experiment [3] and in experiment [4] was 10 to 50 µM each time.
As to `O=C(NCCCN1CCN(C(=O)N[C@@H](C(=O)N[C@H]2Cc3ccc(F)c(C(=O)O)c3OB2O)c2cc(F)c(O)c(O)c2Cl)C1=O)c1cccc(O)c1` [Example 255, (R)-3-((R)-2-(2-chloro-5-fluoro-3,4-dihydroxyphenyl)-2-(3-(3-(3-hydroxybenzamido)propyl)-2-oxoimidazolidine-1-carboxamido)acetamido)-7-fluoro-2-hydroxy-3,4-dihydro-2H-benzo[e][1,2]oxaborinine-8-carboxylic acid], the MIC in experiment [1] and in experiment [2] was under 1 µg/mL in each case. Besides, the EC50 in experiment [3] and in experiment [4] was 10 to 50 µM throughout.
Consider `O=C(NCCCN1CCN(C(=O)N[C@@H](C(=O)N[C@H]2Cc3ccc(F)c(C(=O)O)c3OB2O)c2cc(F)c(O)c(O)c2Cl)C1=O)Nc1cccc(O)c1` [Example 258, (R)-3-((R)-2-(2-chloro-5-fluoro-3,4-dihydroxyphenyl)-2-(3-(3-(3-(3-hydroxyphenyl)ureido)propyl)-2-oxoimidazolidine-1-carboxamido)acetamido)-7-fluoro-2-hydroxy-3,4-dihydro-2H-benzo[e][1,2]oxaborinine-8-carboxylic acid], for which the MIC in experiment [1] and in experiment [2] was under 1 µg/mL throughout. The figures for the EC50 in experiment [3] and in experiment [4] were under 10 µM and 10 to 50 µM, respectively.
Regarding `O=C(NCCCN1CCN(C(=O)NC(C(=O)N[C@H]2Cc3ccc(F)c(C(=O)O)c3OB2O)c2cc(F)c(O)c(O)c2Cl)C(=O)C1=O)Nc1ccncc1` (stereo partly drawn) [Example 228, (3R)-3-(2-(2-chloro-5-fluoro-3,4-dihydroxyphenyl)-2-(2,3-dioxo-4-(3-(3-(pyridin-4-yl)ureido)propyl)piperazine-1-carboxamido)acetamido)-7-fluoro-2-hydroxy-3,4-dihydro-2H-benzo[e][1,2]oxaborinine-8-carboxylic acid], the MIC was under 1 µg/mL in experiment [1] and 2 to 4 µg/mL (≈ 2.63 to 5.26 µM) in experiment [2]. Besides, the EC50 in experiment [3] and in experiment [4] was 10 to 50 µM each time.
